Experiments:
[1] = target: T1, Recombinant (1-346) HPK1 (h) (Homo sapiens, UniProt Q92918); assay: HPK1 Human STE Kinase Enzymatic Radiometric Assay; type: biochemical; details: read-out: HPK1 IC50 nM Range*
T1 construct: Recombinant (1-346) HPK1 (h) is incubated with 8 mM MOPS pH 7.0
T1 sequence (Q92918 1-346): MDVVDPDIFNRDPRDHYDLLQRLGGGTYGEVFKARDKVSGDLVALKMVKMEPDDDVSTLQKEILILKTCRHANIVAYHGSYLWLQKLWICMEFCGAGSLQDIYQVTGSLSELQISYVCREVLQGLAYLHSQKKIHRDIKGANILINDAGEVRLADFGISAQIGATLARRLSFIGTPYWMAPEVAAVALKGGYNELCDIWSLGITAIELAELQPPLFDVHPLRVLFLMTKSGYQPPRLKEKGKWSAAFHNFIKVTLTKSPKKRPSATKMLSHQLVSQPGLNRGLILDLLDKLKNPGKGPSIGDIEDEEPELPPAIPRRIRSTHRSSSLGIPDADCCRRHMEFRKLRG
Protocol: A stock solution of 10 mM of test compound is prepared in DMSO. The compound plate was prepared by 3-fold and 9-point serial dilutions. […] The reaction is initiated by The addition of the Mg/ATP mix. After incubation for 40 minutes at RT, the reaction is stopped by the addition of phosphoric acid to a concentration of 0.5%.

Lck (h) = Lck (h) (Homo sapiens, UniProt P06239); assay: Lck Human  Kinase Enzymatic Radiometric Assay; type: biochemical; details: read-out: Lck IC50 nM Range*
How it was run: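 Substrate 33P-incorporation measured by scintillation counting after spotting on P30 filtermat and phosphoric acid washes. Human Lck reacted 40 min at RT in 50 mM Tris pH 7.5 with 10 mM MgAcetate, [gamma-33P]-ATP, 250 uM Cdc2 peptide, 0.1 mM EGTA and 0.1 mM Na3VO4.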

Chain of Lck (h) (P06239 whole entry): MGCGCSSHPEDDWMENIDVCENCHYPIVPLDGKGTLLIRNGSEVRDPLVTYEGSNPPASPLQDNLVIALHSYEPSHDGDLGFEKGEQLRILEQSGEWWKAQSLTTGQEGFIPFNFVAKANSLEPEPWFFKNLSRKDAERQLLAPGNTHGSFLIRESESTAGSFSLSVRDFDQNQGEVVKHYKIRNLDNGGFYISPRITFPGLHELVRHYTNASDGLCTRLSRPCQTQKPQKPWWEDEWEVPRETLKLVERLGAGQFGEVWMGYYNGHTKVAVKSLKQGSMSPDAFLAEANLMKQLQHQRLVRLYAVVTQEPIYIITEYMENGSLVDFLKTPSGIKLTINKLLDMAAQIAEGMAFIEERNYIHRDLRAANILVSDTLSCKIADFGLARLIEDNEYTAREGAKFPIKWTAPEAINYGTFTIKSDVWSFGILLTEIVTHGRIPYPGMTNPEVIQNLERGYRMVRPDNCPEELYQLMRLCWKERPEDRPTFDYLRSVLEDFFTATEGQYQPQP

| Structure (SMILES) | IC50 [1] [nM] | IC50 (Lck (h)) [nM] |
| --- | --- | --- |
| Nc1nc(F)c(-c2ccc(S(=O)(=O)N3CCOCC3)cc2)cc1-c1ccc2c(c1)CCNC2=O [I-98, 6-(2-amino-6-fluoro-5-(4-(morpholinosulfonyl)phenyl)pyridin-3-yl)-3,4-dihydroisoquinolin-1(2H)-one] | 11 to 100 | > 1000 |
| Nc1nc(F)c(-c2ccc(S(=O)(=O)N3CCCC3)cc2)cc1-c1ccc2c(c1)CCNC2=O [I-99, 6-(2-amino-6-fluoro-5-(4-(pyrrolidin-1-ylsulfonyl)phenyl)pyridin-3-yl)-3,4-dihydroisoquinolin-1(2H)-one] | 11 to 100 | > 1000 |
| CCN1CCCCC1c1ccc(-c2cc(-c3ccc4c(c3)CCNC4=O)c(N)nc2F)cc1 (stereo not drawn) [I-100, 6-(2-amino-5-(4-(1-ethylpiperidin-2-yl)phenyl)-6-fluoropyridin-3-yl)-3,4-dihydroisoquinolin-1(2H)-one] | 0.1 to 10 | > 1000 |
| Nc1nc(F)c(-c2ccc(C3CCCCN3CC(F)F)cc2)cc1-c1ccc2c(c1)CCNC2=O (stereo not drawn) [I-101, 6-(2-amino-5-(4-(1-(2,2-difluoroethyl)piperidin-2-yl)phenyl)-6-fluoropyridin-3-yl)-3,4-dihydroisoquinolin-1(2H)-one] | 11 to 100 | > 1000 |
| CCN1CCOC(c2ccc(-c3cc(-c4ccc5c(c4)CCNC5=O)c(N)nc3F)cc2)C1 (stereo not drawn) [I-102, 6-(2-amino-5-(4-(4-ethylmorpholin-2-yl)phenyl)-6-fluoropyridin-3-yl)-3,4-dihydroisoquinolin-1(2H)-one] | 11 to 100 | > 1000 |
| Nc1nc(F)c(-c2ccc(C3CN(CC(F)F)CCO3)cc2)cc1-c1ccc2c(c1)CCNC2=O (stereo not drawn) [I-103, 6-(2-amino-5-(4-(4-(2,2-difluoroethyl)morpholin-2-yl)phenyl)-6-fluoropyridin-3-yl)-3,4-dihydroisoquinolin-1(2H)-one] | 11 to 100 | > 1000 |
| CC(C)N1CCCCC1c1ccc(-c2cc(-c3ccc4c(c3)CCNC4=O)c(N)nc2F)cc1 (stereo not drawn) [I-104, 6-(2-amino-6-fluoro-5-(4-(1-isopropylpiperidin-2-yl)phenyl)pyridin-3-yl)-3,4-dihydroisoquinolin-1(2H)-one] | 0.1 to 10 | > 1000 |
| CC(C)N1CCOC(c2ccc(-c3cc(-c4ccc5c(c4)CCNC5=O)c(N)nc3F)cc2)C1 (stereo not drawn) [I-105, 6-(2-amino-6-fluoro-5-(4-(4-isopropylmorpholin-2-yl)phenyl)pyridin-3-yl)-3,4-dihydroisoquinolin-1(2H)-one] | 0.1 to 10 | > 1000 |
| CN1C[C@@H]2C[C@]2(c2ccc(-c3cc(-c4ccc5c(c4)CCNC5=O)c(N)nc3F)cc2)C1 [I-106, 6-(2-amino-6-fluoro-5-(4-((1S,5R)-3-methyl-3-azabicyclo[3.1.0]hexan-1-yl)phenyl)pyridin-3-yl)-3,4-dihydroisoquinolin-1(2H)-one] | 0.1 to 10 | > 1000 |
| COCCN1CCC(c2ccc(-c3cc(-c4ccc5c(c4)CCNC5=O)c(N)nc3F)cc2)CC1 [I-107, 6-(2-amino-6-fluoro-5-(4-(1-(2-methoxyethyl)piperidin-4-yl)phenyl)pyridin-3-yl)-3,4-dihydroisoquinolin-1(2H)-one] | 0.1 to 10 | > 1000 |
| C[C@@H]1COCCN1c1ccc(-c2cc(-c3ccc4c(c3)CCNC4=O)c(N)nc2F)c(F)c1 [I-108, (R)-6-(2-amino-6-fluoro-5-(2-fluoro-4-(3-methylmorpholino)phenyl)pyridin-3-yl)-3,4-dihydroisoquinolin-1(2H)-one] | 11 to 100 | > 1000 |
| Nc1nc(F)c(-c2ccc(C3=CCNC3)cc2)cc1-c1ccc2c(c1)CCNC2=O [I-109, 6-(2-amino-5-(4-(2,5-dihydro-1H-pyrrol-3-yl)phenyl)-6-fluoropyridin-3-yl)-3,4-dihydroisoquinolin-1(2H)-one 2,2,2-trifluoroacetate] | 0.1 to 10 | > 1000 |

Source: patent publication US20240343704A1, “HALO-SUBSTITUTED AMINO PYRIDINE COMPOUNDS AS INHIBITORS OF THE HAEMATOPOIETIC PROGENITOR KINASE 1 (HPK1)” (priority 2021, published 2024)
